Assay results reported in patent US20260297080A1, “BICYCLIC COMPOUNDS AS CDK INHIBITORS” (BeOne Medicines I GmbH, priority 2022, published 2026).

Experiments:
CDK2/Cyclin E1 = CDK2/Cyclin E1 (Homo sapiens, UniProt P24941); assay: CDK2/Cyclin E1 Biochemical Assay (TR-FRET), 0.060 mM ATP; settings: 0.15 μM Rb (Ser780)-biotin substrate, pH7.0, 60 min preincubation, 120 min reaction, room temperature
Outline: (§1)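 Enzyme + cpd (0–10 μM), 60 min RT; add ATP + 0.15 μM Rb(Ser780)-biotin, 120 min RT; 50 mM HEPES pH 7.0, 50 mM MgCl2, 1 mM DTT, 0.1 mM orthovanadate. Stop/detect with Eu anti-pRb + SA-XL665, 60 min; ratio 665/620 nm; IC50 by 4PL fit.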

CDK1/Cyclin B1 = CDK1/Cyclin B1 (Homo sapiens, UniProt P06493); assay: CDK1/Cyclin B1 Biochemical Assay (TR-FRET), 0.015 mM ATP; settings: 0.15 μM Rb (Ser780)-biotin substrate, pH7.0, 60 min preincubation, 120 min reaction, room temperature
Sequence of CDK1/Cyclin B1 (P06493 whole entry): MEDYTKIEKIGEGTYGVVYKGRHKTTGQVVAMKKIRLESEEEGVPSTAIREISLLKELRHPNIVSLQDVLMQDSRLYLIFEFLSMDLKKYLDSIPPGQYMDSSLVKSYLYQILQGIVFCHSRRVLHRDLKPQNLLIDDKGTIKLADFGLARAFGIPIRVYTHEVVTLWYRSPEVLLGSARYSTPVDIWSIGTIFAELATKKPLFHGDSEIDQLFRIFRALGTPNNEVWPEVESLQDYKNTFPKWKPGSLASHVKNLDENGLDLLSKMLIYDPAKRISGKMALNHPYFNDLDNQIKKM
Sequence of CDK1/Cyclin B1 (P14635 whole entry partner): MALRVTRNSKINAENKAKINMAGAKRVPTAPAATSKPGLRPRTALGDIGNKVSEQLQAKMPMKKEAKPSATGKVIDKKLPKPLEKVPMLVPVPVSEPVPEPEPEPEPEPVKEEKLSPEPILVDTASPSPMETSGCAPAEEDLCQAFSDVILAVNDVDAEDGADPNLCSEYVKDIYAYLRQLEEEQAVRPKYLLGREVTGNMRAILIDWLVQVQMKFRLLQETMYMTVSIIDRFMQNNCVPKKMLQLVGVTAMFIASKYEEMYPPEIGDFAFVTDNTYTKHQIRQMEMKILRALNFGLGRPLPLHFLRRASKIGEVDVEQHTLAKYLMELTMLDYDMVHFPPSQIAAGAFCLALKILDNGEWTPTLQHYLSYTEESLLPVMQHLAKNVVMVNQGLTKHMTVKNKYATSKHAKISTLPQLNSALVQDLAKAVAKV
Outline: as §1

| IC50 (CDK2/Cyclin E1) | IC50 (CDK1/Cyclin B1) | Structure (SMILES) |
| --- | --- | --- |
| 1.7 nM | 45 nM | CC[C@H](C)NC(=O)O[C@@H]1CC[C@H](c2cc(Nc3ccc4c(c3F)CS(=O)(=O)N4)n[nH]2)C1 (single isomer, unassigned) [Example 383a] |
| 1.4 nM | 15 nM | CC[C@H](C)NC(=O)O[C@H]1CC[C@@H](c2cc(Nc3ccc4c(c3F)CS(=O)(=O)N4)n[nH]2)C1 (single isomer, unassigned) [Example 383b] |
| 0.8 nM | 22 nM | CC(C)NC(=O)O[C@H]1CC[C@@H](c2cc(Nc3ccc4c(c3)C(C)S(=O)(=O)N4)n[nH]2)C1 (single isomer, unassigned) [Example 384a, cis-3-(3-((3-methyl-2,2-dioxido-1,3-dihydrobenzo[c]isothiazol-5-yl)amino)-1H-pyrazol-5-yl)cyclopentyl isopropylcarbamate] |
| 3.9 nM | 191 nM | CC(C)NC(=O)O[C@H]1CC[C@@H](c2cc(Nc3ccc4c(c3)C(C)S(=O)(=O)N4)n[nH]2)C1 (single isomer, unassigned) [Example 384b, cis-3-(3-((3-methyl-2,2-dioxido-1,3-dihydrobenzo[c]isothiazol-5-yl)amino)-1H-pyrazol-5-yl)cyclopentyl isopropylcarbamate] |
| 1.2 nM | 14 nM | CC(C)NC(=O)O[C@H]1CC[C@@H](c2cc(Nc3ccc4c(c3)C(C)S(=O)(=O)N4)n[nH]2)C1 (single isomer, unassigned) [Example 384c, cis-3-(3-((3-methyl-2,2-dioxido-1,3-dihydrobenzo[c]isothiazol-5-yl)amino)-1H-pyrazol-5-yl)cyclopentyl isopropylcarbamate] |
| 1.8 nM | 57 nM | CC(C)NC(=O)O[C@H]1CC[C@@H](c2cc(Nc3ccc4c(c3)C(C)S(=O)(=O)N4)n[nH]2)C1 (single isomer, unassigned) [Example 384d, cis-3-(3-((3-methyl-2,2-dioxido-1,3-dihydrobenzo[c]isothiazol-5-yl)amino)-1H-pyrazol-5-yl)cyclopentyl isopropylcarbamate] |
| 3 nM | 137 nM | CCCNC(=O)O[C@@H]1CC[C@H](c2cc(Nc3ccc4c(c3F)CS(=O)(=O)N4)n[nH]2)C1 (single isomer, unassigned) [Example 387a] |
| 2 nM | 37 nM | CCCNC(=O)O[C@H]1CC[C@@H](c2cc(Nc3ccc4c(c3F)CS(=O)(=O)N4)n[nH]2)C1 (single isomer, unassigned) [Example 387b] |
| 1.2 nM | 36 nM | CC1(NC(=O)O[C@@H]2CC[C@H](c3cc(Nc4ccc5c(c4F)CS(=O)(=O)N5)n[nH]3)C2)CC1 (single isomer, unassigned) [Example 388a] |
| 1.3 nM | 21 nM | CC1(NC(=O)O[C@H]2CC[C@@H](c3cc(Nc4ccc5c(c4F)CS(=O)(=O)N5)n[nH]3)C2)CC1 (single isomer, unassigned) [Example 388b] |
| 1.6 nM | 191 nM | CC(C)(C)NC(=O)O[C@@H]1CC[C@H](c2cc(Nc3cc4c(cc3F)S(=O)(=O)NC4)n[nH]2)C1 (single isomer, unassigned) [Example 395a] |
| 1.3 nM | 114 nM | CC(C)(C)NC(=O)O[C@H]1CC[C@@H](c2cc(Nc3cc4c(cc3F)S(=O)(=O)NC4)n[nH]2)C1 (single isomer, unassigned) [Example 395b] |
| 6.2 nM | 264 nM | O=C(NC1CCC1)O[C@@H]1CC[C@H](c2cc(Nc3ccc4c(c3F)CS(=O)(=O)N4)n[nH]2)C1 (single isomer, unassigned) [Example 399a] |
| 3.8 nM | 90 nM | O=C(NC1CCC1)O[C@H]1CC[C@@H](c2cc(Nc3ccc4c(c3F)CS(=O)(=O)N4)n[nH]2)C1 (single isomer, unassigned) [Example 399b] |
| 6.9 nM | 154 nM | O=C(NC1CCCC1)O[C@@H]1CC[C@H](c2cc(Nc3ccc4c(c3F)CS(=O)(=O)N4)n[nH]2)C1 (single isomer, unassigned) [Example 400a] |
| 3.4 nM | 64 nM | O=C(NC1CCCC1)O[C@H]1CC[C@@H](c2cc(Nc3ccc4c(c3F)CS(=O)(=O)N4)n[nH]2)C1 (single isomer, unassigned) [Example 400b] |
| 2 nM | 298 nM | O=C(NCCC(F)(F)F)O[C@@H]1CC[C@H](c2cc(Nc3cc4c(cc3F)S(=O)(=O)NC4)n[nH]2)C1 (single isomer, unassigned) [Example 419a] |
| 1.8 nM | 78 nM | O=C(NCCC(F)(F)F)O[C@H]1CC[C@@H](c2cc(Nc3cc4c(cc3F)S(=O)(=O)NC4)n[nH]2)C1 (single isomer, unassigned) [Example 419b] |
| 0.7 nM | 17 nM | CN1c2ccc(Nc3cc([C@H]4CC[C@@H](OC(=O)NC(C)(C)C)C4)[nH]n3)cc2CS1(=O)=O [Example 391a] |
| 0.9 nM | 7.8 nM | CN1c2ccc(Nc3cc([C@@H]4CC[C@H](OC(=O)NC(C)(C)C)C4)[nH]n3)cc2CS1(=O)=O [Example 391b] |
| 1 nM | 10 nM | CC(C)(C)NC(=O)O[C@@H]1CC[C@H](c2cc(Nc3ccc4c(c3)CS(=O)(=O)N4)n[nH]2)C1 [Example 403a] |

Second part, the compound before the results:

| Structure (SMILES) | IC50 (CDK2/Cyclin E1) | IC50 (CDK1/Cyclin B1) |
| --- | --- | --- |
| CN1Cc2c(ccc(Nc3cc([C@@H]4CC[C@H](OC(=O)NC5(C)COC5)C4)[nH]n3)c2F)S1(=O)=O (single isomer, unassigned) [Example 352b, cis-3-(3-((4-fluoro-2-methyl-1,1-dioxido-2,3-dihydrobenzo[d]isothiazol-5-yl)amino)-1H-pyrazol-5-yl)cyclopentyl(3-methyloxetan-3-yl)carbamate] | 7 nM | 651 nM |
| O=C(NC1CCC1)O[C@H]1CC[C@@H](c2cc(Nc3ccc4c(c3)CS(=O)(=O)N4)n[nH]2)C1 (single isomer, unassigned) [Example 380a, cis-3-(3-((2,2-dioxido-1,3-dihydrobenzo[c]isothiazol-5-yl)amino)-1H-pyrazol-5-yl)cyclopentyl cyclobutylcarbamate] | 1.6 nM | 70 nM |
| O=C(NC1CCC1)O[C@H]1CC[C@@H](c2cc(Nc3ccc4c(c3)CS(=O)(=O)N4)n[nH]2)C1 (single isomer, unassigned) [Example 380b, cis-3-(3-((2,2-dioxido-1,3-dihydrobenzo[c]isothiazol-5-yl)amino)-1H-pyrazol-5-yl)cyclopentyl cyclobutylcarbamate] | 0.9 nM | 23 nM |
| O=C(NC1CCCC1)O[C@H]1CC[C@@H](c2cc(Nc3ccc4c(c3)CS(=O)(=O)N4)n[nH]2)C1 (single isomer, unassigned) [Example 381a, cis-3-(3-((2,2-dioxido-1,3-dihydrobenzo[c]isothiazol-5-yl)amino)-1H-pyrazol-5-yl)cyclopentyl cyclopentylcarbamate] | 1.2 nM | 45 nM |
| O=C(NC1CCCC1)O[C@H]1CC[C@@H](c2cc(Nc3ccc4c(c3)CS(=O)(=O)N4)n[nH]2)C1 (single isomer, unassigned) [Example 381b, cis-3-(3-((2,2-dioxido-1,3-dihydrobenzo[c]isothiazol-5-yl)amino)-1H-pyrazol-5-yl)cyclopentyl cyclopentylcarbamate] | 0.9 nM | 19 nM |
| CC(C)NC(=O)O[C@@H]1CC[C@H](c2cc(Nc3ccc4c(c3)NS(=O)(=O)C4)n[nH]2)C1 (stereo in doubt) [Example 303a, cis-3-(3-((2,2-dioxido-1,3-dihydrobenzo[c]isothiazol-6-yl)amino)-1H-pyrazol-5-yl)cyclopentyl isopropylcarbamate] | 2.6 nM | 48 nM |
| CC(C)NC(=O)O[C@H]1CC[C@@H](c2cc(Nc3ccc4c(c3)NS(=O)(=O)C4)n[nH]2)C1 (stereo in doubt) [Example 303b, cis-3-(3-((2,2-dioxido-1,3-dihydrobenzo[c]isothiazol-6-yl)amino)-1H-pyrazol-5-yl)cyclopentyl isopropylcarbamate] | 2 nM | 28 nM |
| CCCNC(=O)O[C@H]1C[C@@H](c2cc(Nc3cc4c(cc3F)S(=O)(=O)NC4)n[nH]2)C1 [Example 50, cis-3-(3-((6-fluoro-1,1-dioxido-2,3-dihydrobenzo[d]isothiazol-5-yl)amino)-1H-pyrazol-5-yl)cyclobutyl propylcarbamate] | 5.6 nM | 140 nM |
| CC(C)NC(=O)OC1CC(c2cc(Nc3ccc4c(c3F)CNS4(=O)=O)n[nH]2)C1 (stereo not shown) [Example 137, 3-(3-((4-fluoro-1,1-dioxido-2,3-dihydrobenzo[d]isothiazol-5-yl)amino)-1H-pyrazol-5-yl)cyclobutyl isopropylcarbamate] | 35 nM | 375 nM |
| CC(C)NC(=O)OC1CC(c2cc(Nc3ccc4c(c3)CNS4(=O)=O)n[nH]2)C1 (stereo not shown) [Example 173, 3-(3-((1,1-dioxido-2,3-dihydrobenzo[d]isothiazol-5-yl)amino)-1H-pyrazol-5-yl)cyclobutyl isopropylcarbamate] | 6.7 nM | 73 nM |
| CCCNC(=O)O[C@H]1CC[C@@H](c2cc(Nc3ccc4c(c3)CS(=O)(=O)N4)n[nH]2)C1 [Example 195b] | 17 nM | 67 nM |
| CCCNC(=O)O[C@@H]1CC[C@H](c2cc(Nc3ccc4c(c3F)CS(=O)(=O)N4CC(F)(F)F)n[nH]2)C1 [Example 266a] | 3.3 nM | 96 nM |
| CCCNC(=O)O[C@H]1CC[C@@H](c2cc(Nc3ccc4c(c3F)CS(=O)(=O)N4CC(F)(F)F)n[nH]2)C1 [Example 266b] | 3.5 nM | 59 nM |
| CC(C)NC(=O)O[C@H]1C[C@@H](c2cc(Nc3cc4c(cc3F)S(=O)(=O)NC4)n[nH]2)C1 [Example 397, (1s,3s)-3-(3-((6-fluoro-1,1-dioxido-2,3-dihydrobenzo[d]isothiazol-5-yl)amino)-1H-pyrazol-5-yl)cyclobutyl isopropylcarbamate] | 103 nM | 2020 nM |
